The text below walks through data of patent publication US9533985B2, “Sulfonamide derivative and medicinal use thereof” (EA Pharma Co., Ltd., priority 2012, dated 2017).

Structures are written as SMILES.

Common to all, as to type: cell-based
For assay [1], the target named is T1, α4β7 integrin (Homo sapiens (Human), UniProt P13612+P26010). Put plainly: MAdCAM-1/α4β7 integrin binding inhibitory activity evaluation test (RPMI-8866 cell adhesion to MAdCAM-1/Fc). The settings on record: for Selectivity: IC50 in VCAM-1/α4β1 test divided by IC50 in MAdCAM-1/α4β7 test; for IC50: RPMI-8866 cells binding to recombinant mouse MAdCAM-1/Fc, no serum. On the procedure: The ability of test substances to inhibit the binding of a human B cell line, RPMI-8866, which is known to express α4β7 integrin, to MAdCAM-1 was measured. To 96-well microtiter plates, recombinant mouse MAdCAM-1/Fc (R&D systems) solution (0.75 μg/mL) diluted with buffer A (carbonate buffer solution, pH 9.6) was added at 50 μL/well, followed by incubation at 4° C. overnight. After washing once with PBS, Block Ace (Snow Brand Milk Products Company, Limited) was added at 150 μL/well, followed by incubation at room temperature for 2 hours. After removal, washing was conducted once with PBS. 100 μL of each test substance diluted with binding buffer (DMEM containing 40 mM HEPES, 0.2% BSA, and 4 mM MnCl2) to various concentrations and 100 μL of RPMI-8866 cells (2×10^6 cell/mL) were added to the plates coated with MAdCAM-1/Fc (5×10^5 cells/well), followed by incubation at 30° C. for 15 minutes to 60 minutes. After the cells were bound to each well, unbound cells were removed by washing with PBS. To the plates, buffer C (PBS containing 1.5% Triton X-100) was added at 50 μL/well to lyse the bound RPMI-8866 cells. To 30 μL of the cell lysate, 30 μL of Substrate Buffer (Promega, CytoTox 96 Non-Radioactive Cytotoxicity Assay) was added, and the reaction was allowed to proceed at room temperature in a dark place for 30 minutes. To each well, 30 μL of Stop Solution (Promega, CytoTox 96 Non-Radioactive Cytotoxicity Assay) was added, and the absorbance at 490 nm was measured by using a plate reader. Here, by the obtained absorbance, the activity of the lactate dehydrogenase (LDH) dissolved into the supernatant of each well was detected. In other words, the absorbance was proportional to the number of the RPMI-8866 cells bound to MAdCAM-1 and remaining on the plate. The test was duplicated. The binding ratios of the cells at various concentrations were determined, with the absorbance of a well containing no test substance taken as 100%. Then, the concentration IC50, at which 50% binding inhibition was achieved, was calculated. […] Note that the selectivity in the table was determined by dividing the IC50 value in VCAM-1/α4β1 Integrin Binding Inhibitory Activity Evaluation Test by the IC50 value in the MAdCAM-1/α4β7 integrin binding inhibitory activity evaluation test.

Assay [2] addresses T1, α4β7 integrin. Put plainly: MAdCAM-1/α4β7 integrin binding inhibitory activity evaluation test in the presence of serum (1). The settings on record: RPMI-8866 cells binding to mouse MAdCAM-1/Fc, human serum at final concentration of 50%; read-out: α4β7 with serum added, IC50. As to the method:
The ability of test substances to inhibit the binding of a human B cell line, RPMI-8866, which is known to express α4β7 integrin, to MAdCAM-1 was measured. To 96-well microtiter plates, recombinant mouse MAdCAM-1/Fc (R&D systems) solution (1 μg/mL) diluted with buffer A (carbonate buffer, pH 9.6) was added at 50 μL/well, followed by incubation at 4° C. overnight. After washing once with PBS, Block Ace (Snow Brand Milk Products Company, Limited) was added at 150 μL/well, followed by incubation at room temperature for 2 hours. After removal, washing was conducted once with PBS. 100 μL of each test substance diluted with a binding buffer (DMEM containing 40 mM HEPES, 0.2% BSA, and 4 mM MnCl2) to various concentrations and 100 μL of RPMI-8866 cells (2×10^6 cell/mL) were added to plates coated with MAdCAM-1/Fc (5×10^5 cells/well) with human serum being contained at a final concentration of 50%, followed by incubation at 30° C. for 15 minutes to 60 minutes. After the cells were bound to each well, unbound cells were removed by washing with PBS. To the plates, buffer C (PBS containing 1.5% Triton X-100) was added at 50 μL/well to lyse the bound RPMI-8866 cells. To 30 μL of the cell lysate, 30 μL of Substrate Buffer (Promega, CytoTox 96 Non-Radioactive Cytotoxicity Assay) was added, and the reaction was allowed to proceed at room temperature in a dark place for 30 minutes. To each well, 30 μL of Stop Solution (Promega, CytoTox 96 Non-Radioactive Cytotoxicity Assay) was added, and the absorbance at 490 nm was measured by using a plate reader. Here, by the obtained absorbance, the activity of the lactate dehydrogenase (LDH) dissolved into the supernatant of each well was detected. In other words, the absorbance was proportional to the number of the RPMI-8866 cells bound to MAdCAM-1 and remaining on the plate. The test was duplicated. The binding ratios of the cells at various concentrations were determined, with the absorbance of a well containing no test substance taken as 100%. Then, the concentration IC50, at which 50% binding inhibition was achieved, was calculated.

The target in assay [3] is α4β1 integrin (Homo sapiens (Human), UniProt P05556+P13612). Put plainly: VCAM-1/α4β1 integrin binding inhibitory activity evaluation test (Jurkat cell adhesion to VCAM-1/Fc). As to conditions: Jurkat cells binding to recombinant human VCAM-1/Fc. As to the method:
The ability of test substances to inhibit the binding of a human T-cell line, Jurkat, which is known to express α4β1 integrin, to VCAM-1 was measured. To 96-well microtiter plates, recombinant human VCAM-1/Fc (R&D systems) solution (1 μg/mL) diluted with buffer A (carbonate buffer, pH 9.6) was added at 50 μL/well, followed by incubation at 4° C. overnight. After washing once with PBS, Block Ace (Snow Brand Milk Products Company, Limited) was added at 150 μL/well, followed by incubation at room temperature for 2 hours. After removal, washing was conducted once with PBS. 100 μL of each test substance diluted with a binding buffer (DMEM containing 40 mM HEPES, 0.2% BSA, and 4 mM MnCl2) to various concentrations and 100 μL of the Jurkat cells (2×10^6 cell/mL) were added to the plates coated with VCAM-1/Fc (5×10^5 cells/well), followed by incubation at 30° C. for 15 minutes to 60 minutes. After the cells were bound to each well, unbound cells were removed by washing with PBS. To the plates, buffer C (PBS containing 1.5% Triton X-100) was added at 50 μL/well to lyse the bound Jurkat cells. To 30 μL of the cell lysate, 30 μL of Substrate Buffer (Promega, CytoTox 96 Non-Radioactive Cytotoxicity Assay) was added, and the reaction was allowed to proceed at room temperature in a dark place for 30 minutes. To each well, 30 μL of Stop Solution (Promega, CytoTox 96 Non-Radioactive Cytotoxicity Assay) was added, and the absorbance at 490 nm was measured by using a plate reader. Here, by the obtained absorbance, the activity of the lactate dehydrogenase (LDH) dissolved into the supernatant of each well was detected. In other words, the absorbance was proportional to the number of the Jurkat cells bound to VCAM-1 and remaining on the plate. The test was duplicated. The binding ratios of the cells at various concentrations were determined, with the absorbance of a well containing no test substances taken as 100%. Then, the concentration IC50, at which 50% binding inhibition was achieved, was calculated. […] Note that, among the compounds synthesized in the corresponding Examples, the compounds in the free form (Compounds A-1 to A-39) were used as the test compounds. Hereinafter, the same shall apply.

T1 sequence (P13612 34-1032): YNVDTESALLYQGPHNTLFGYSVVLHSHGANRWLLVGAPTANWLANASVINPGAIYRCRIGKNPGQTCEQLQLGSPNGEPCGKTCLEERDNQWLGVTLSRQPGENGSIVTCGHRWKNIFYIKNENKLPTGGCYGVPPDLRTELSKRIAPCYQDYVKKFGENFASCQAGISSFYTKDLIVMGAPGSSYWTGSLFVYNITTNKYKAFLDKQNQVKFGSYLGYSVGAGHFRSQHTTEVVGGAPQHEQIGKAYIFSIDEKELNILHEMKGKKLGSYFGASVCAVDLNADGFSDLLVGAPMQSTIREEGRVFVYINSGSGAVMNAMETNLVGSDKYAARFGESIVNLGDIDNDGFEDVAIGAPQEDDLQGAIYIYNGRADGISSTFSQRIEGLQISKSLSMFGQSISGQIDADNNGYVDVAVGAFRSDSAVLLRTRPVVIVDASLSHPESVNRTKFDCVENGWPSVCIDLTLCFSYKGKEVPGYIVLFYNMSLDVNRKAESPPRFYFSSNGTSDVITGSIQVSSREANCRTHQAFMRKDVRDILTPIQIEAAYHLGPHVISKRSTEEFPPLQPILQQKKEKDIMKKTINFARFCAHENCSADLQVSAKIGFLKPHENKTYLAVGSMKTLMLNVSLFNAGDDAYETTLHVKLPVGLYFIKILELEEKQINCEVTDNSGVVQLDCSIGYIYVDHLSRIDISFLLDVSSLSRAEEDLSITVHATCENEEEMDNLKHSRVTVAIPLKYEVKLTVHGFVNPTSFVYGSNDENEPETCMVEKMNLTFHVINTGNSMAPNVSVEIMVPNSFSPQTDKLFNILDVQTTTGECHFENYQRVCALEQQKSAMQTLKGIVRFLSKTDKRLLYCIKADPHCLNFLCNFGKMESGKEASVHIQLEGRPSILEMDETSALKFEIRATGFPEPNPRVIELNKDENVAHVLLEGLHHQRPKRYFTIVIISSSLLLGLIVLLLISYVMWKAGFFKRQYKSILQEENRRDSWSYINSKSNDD
T1 sequence (P26010 20-798): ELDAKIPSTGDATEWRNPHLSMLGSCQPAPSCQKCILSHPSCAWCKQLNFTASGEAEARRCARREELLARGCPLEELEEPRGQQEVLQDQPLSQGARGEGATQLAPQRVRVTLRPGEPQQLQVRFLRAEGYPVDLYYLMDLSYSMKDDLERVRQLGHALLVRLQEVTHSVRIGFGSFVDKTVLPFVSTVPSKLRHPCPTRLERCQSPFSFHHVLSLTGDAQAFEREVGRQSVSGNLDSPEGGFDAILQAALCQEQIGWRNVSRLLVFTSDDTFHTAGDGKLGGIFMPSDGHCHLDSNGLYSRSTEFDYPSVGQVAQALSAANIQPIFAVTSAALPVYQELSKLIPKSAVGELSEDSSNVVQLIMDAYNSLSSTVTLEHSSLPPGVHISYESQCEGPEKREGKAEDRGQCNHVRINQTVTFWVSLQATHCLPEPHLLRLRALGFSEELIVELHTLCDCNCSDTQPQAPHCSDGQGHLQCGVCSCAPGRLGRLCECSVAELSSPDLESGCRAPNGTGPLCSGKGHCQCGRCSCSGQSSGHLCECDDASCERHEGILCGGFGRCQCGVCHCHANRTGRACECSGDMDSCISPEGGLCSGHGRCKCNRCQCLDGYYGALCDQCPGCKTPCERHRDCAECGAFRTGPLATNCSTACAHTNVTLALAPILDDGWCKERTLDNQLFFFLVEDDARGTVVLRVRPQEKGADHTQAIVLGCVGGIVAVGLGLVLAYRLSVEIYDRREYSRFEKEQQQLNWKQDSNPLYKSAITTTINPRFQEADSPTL
α4β1 integrin, sequence (P13612 34-1032): as the sequence (P13612 34-1032) above
α4β1 integrin, sequence (P05556 21-798): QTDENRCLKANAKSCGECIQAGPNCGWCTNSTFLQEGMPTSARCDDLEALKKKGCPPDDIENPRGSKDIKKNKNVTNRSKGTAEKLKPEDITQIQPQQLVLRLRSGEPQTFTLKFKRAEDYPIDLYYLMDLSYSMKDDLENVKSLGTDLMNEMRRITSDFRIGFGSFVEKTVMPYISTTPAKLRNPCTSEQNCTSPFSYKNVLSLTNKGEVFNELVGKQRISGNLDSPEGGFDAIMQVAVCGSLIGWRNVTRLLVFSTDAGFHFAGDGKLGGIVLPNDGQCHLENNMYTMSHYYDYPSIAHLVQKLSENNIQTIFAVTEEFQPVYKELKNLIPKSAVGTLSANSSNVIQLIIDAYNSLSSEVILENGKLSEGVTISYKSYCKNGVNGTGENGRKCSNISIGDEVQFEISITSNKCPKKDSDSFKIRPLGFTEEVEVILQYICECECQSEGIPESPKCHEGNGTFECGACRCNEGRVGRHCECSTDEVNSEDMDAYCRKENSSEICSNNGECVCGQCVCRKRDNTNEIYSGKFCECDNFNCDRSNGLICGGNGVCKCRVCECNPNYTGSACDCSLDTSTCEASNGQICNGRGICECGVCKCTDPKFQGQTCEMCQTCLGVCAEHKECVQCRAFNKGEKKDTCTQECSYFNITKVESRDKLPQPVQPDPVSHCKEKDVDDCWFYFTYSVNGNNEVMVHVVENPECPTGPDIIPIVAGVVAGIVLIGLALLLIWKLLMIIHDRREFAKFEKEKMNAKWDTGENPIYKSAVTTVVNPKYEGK

As usually defined, the IC50 is the concentration that inhibits the measured activity by half. Turning to `Cn1c(=O)n(-c2ccc(C[C@H](NC(=O)c3ccc(NS(=O)(=O)c4ccncc4)cc3F)C(=O)O)cc2)c(=O)c2ccncc21` [Example 39, N-{2-Fluoro-4-[(pyridin-4-yl-sulfonyl)amino]benzoyl}-4-(1-methyl-2,4-dioxo-1,4-dihydropyrido[3,4-d]pyrimidin-3(2H)-yl)-L-phenylalanine], in assay [1], the Selectivity is listed as 170. In addition, the 50% inhibitory concentration (IC50) is 0.83 nM in assay [1], 27 nM in assay [2] and 140 nM in assay [3].
In the same order, the values of `Cn1ccc(=O)n(-c2ccc(C[C@H](NC(=O)c3c(F)cc(NS(=O)(=O)c4ccc(-c5ncccn5)cn4)cc3F)C(=O)O)cc2)c1=O` [Example 40, N-(2,6-Difluoro-4-{[(5-pyrimidin-2-yl-pyridin-2-yl)sulfonyl]amino}benzoyl)-4-(3-methyl-2,6-dioxo-3,6-dihydropyrimidin-1(2H)-yl)-L-phenylalanine] are 290, 0.73 nM, 8.7 nM and 210 nM.
In assay [1], `Cn1c(=O)n(-c2ccc(C[C@H](NC(=O)c3c(F)cc(NS(=O)(=O)c4ccc(-c5ncccn5)cc4)cc3F)C(=O)O)cc2)c(=O)c2ccncc21` [Example 41, N-(2,6-Difluoro-4-{[(4-pyrimidin-2-yl-phenyl)sulfonyl]amino}benzoyl)-4-(1-methyl-2,4-dioxo-1,4-dihydropyrido[3,4-d]pyrimidin-3(2H)-yl)-L-phenylalanine] had a Selectivity of 500. Further, the results for the concentration for half-maximal inhibition (IC50) in assay [1], in assay [2] and in assay [3] were 0.26 nM, 6.4 nM and 130 nM, respectively.
With `Cn1c(=O)n(-c2ccc(C[C@H](NC(=O)c3c(F)cc(NS(=O)(=O)c4ccc(-c5ccncc5)nc4)cc3F)C(=O)O)cc2)c(=O)c2ccncc21` [Example 42, N-{4-[(2,4′-Bipyridin-5-yl-sulfonyl)amino]-2,6-difluorobenzoyl}-4-(1-methyl-2,4-dioxo-1,4-dihydropyrido[3,4-d]pyrimidin-3(2H)-yl)-L-phenylalanine], in assay [1], the Selectivity stood at 190. For the same compound, the half-inhibitory concentration (IC50) was 0.27 nM in assay [1], 8.8 nM in assay [2] and 52 nM in assay [3].
In the same order, the values of `Cn1c(=O)n(-c2ccc(C[C@H](NC(=O)c3c(F)cc(NS(=O)(=O)c4ccc(-n5cccc5)cc4)cc3F)C(=O)O)cc2)c(=O)c2ccncc21` [Example 43, N-[2,6-Difluoro-4-({[4-(1H-pyrrol-1-yl)phenyl]sulfonyl}amino)benzoyl]-4-(1-methyl-2,4-dioxo-1,4-dihydropyrido[3,4-d]pyrimidin-3(2H)-yl)-L-phenylalanine] are 240, 0.9 nM, 12 nM and 220 nM.
In the same order, the values of `CCNC(=O)c1ccc(S(=O)(=O)Nc2cc(F)c(C(=O)N[C@@H](Cc3ccc(-n4c(=O)ccn(C)c4=O)cc3)C(=O)O)c(F)c2)cc1` [Example 44, N-{4-[({4-[(Ethylamino)carbonyl]phenyl}sulfonyl)amino]-2,6-difluorobenzoyl}-4-(3-methyl-2,6-dioxo-3,6-dihydropyrimidin-1(2H)-yl)-L-phenylalanine] are 260, 0.62 nM, 16 nM and 160 nM.
In the same order, the values of `Cn1ccc(=O)n(-c2ccc(C[C@H](NC(=O)c3c(F)cc(NS(=O)(=O)c4ccc(C(=O)NC5CC5)cc4)cc3F)C(=O)O)cc2)c1=O` [Example 45, N-{4-[({4-[(Cyclopropylamino)carbonyl]phenyl}sulfonyl)amino]-2,6-difluorobenzoyl}-4-(3-methyl-2,6-dioxo-3,6-dihydropyrimidin-1(2H)-yl)-L-phenylalanine] are 520, 0.97 nM, 21 nM and 500 nM.
Consider `COc1cc2c(=O)n(-c3ccc(C[C@H](NC(=O)c4c(F)cc(NS(=O)(=O)c5ccc(-c6ncccn6)cc5)cc4F)C(=O)O)cc3)c(=O)n(C)c2cn1` [Example 46, N-(2,6-Difluoro-4-{[(4-pyrimidin-2-yl-phenyl)sulfonyl]amino}benzoyl)-4-(6-methoxy-1-methyl-2,4-dioxo-1,4-dihydropyrido[3,4-d]pyrimidin-3(2H)-yl)-L-phenylalanine], for which, in assay [1], the Selectivity was determined as 180. Further, the concentration for half-maximal inhibition (IC50) in assay [1] is 1.1 nM; in assay [2], 15 nM; in assay [3], 200 nM.
For `CN(C)c1ccc2c(c1)c(=O)n(-c1ccc(C[C@H](NC(=O)c3c(F)cc(NS(=O)(=O)c4ccc(-n5cncn5)cc4)cc3F)C(=O)O)cc1)c(=O)n2C` [Example 47, N-[2,6-Difluoro-4-({[4-(1H-1,2,4-triazol-1-yl)phenyl]sulfonyl}amino)benzoyl]-4-[6-(dimethylamino)-1-methyl-2,4-dioxo-1,4-dihydroquinazolin-3(2H)-yl]-L-phenylalanine], the Selectivity in assay [1] is given as 1100. For the same compound, the IC50 in assay [1] stood at 0.32 nM; in assay [2], 20 nM; in assay [3] it was 340 nM.
